Reference: patent US8372838B2, “Compounds as bradykinin B1 antagonists” (Boehringer Ingelheim International GmbH, priority 2010, dated 2013)

Assays:
cynomolgus BK1-receptor = molecular target: T1, cynomolgus BK1-receptor (Macaca fascicularis, UniProt Q3BCU0); test: cynoBK1-receptor binding assay
T1 construct: expressed in transfected cells; host or cells: CHO cells
T1 sequence (Q3BCU0 1-352): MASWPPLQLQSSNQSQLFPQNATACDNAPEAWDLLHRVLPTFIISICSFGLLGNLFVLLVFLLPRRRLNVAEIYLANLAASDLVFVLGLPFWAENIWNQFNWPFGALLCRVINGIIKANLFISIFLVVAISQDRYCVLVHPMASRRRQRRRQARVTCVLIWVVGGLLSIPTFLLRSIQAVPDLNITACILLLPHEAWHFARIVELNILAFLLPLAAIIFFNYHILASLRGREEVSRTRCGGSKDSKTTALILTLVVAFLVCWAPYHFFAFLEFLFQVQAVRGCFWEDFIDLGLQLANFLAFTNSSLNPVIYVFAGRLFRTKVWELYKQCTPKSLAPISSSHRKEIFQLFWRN
Experimental: Description of the Method of Binding the CynoBK1-Receptor
CHO cells that express the cynomolgus BK1-receptor are cultivated in “HAM'S F-12 Medium”. The medium is removed from confluent cultures, the cells are washed with PBS buffer, scraped off or detached using Versene and isolated by centrifuging. Then the cells are homogenised in suspension, the homogenate is centrifuged and resuspended. After the protein content has been determined 200 μl of the homogenate (50 to 250 μg protein/assay) are incubated for 60-180 minutes at ambient temperature with 0.5 to 5.0 nM kallidine (DesArg10,Leu9), [3,4-Prolyl-3,43H(N)] and increasing concentrations of the test substance in a total volume of 250 μl. The incubation is stopped by rapid filtration through GF/B glass fibre filters that have been pre-treated with polyethyleneimine (0.3%). The radioactivity bound to the protein is measured with a TopCount NXT. The radioactivity bound in the presence of 1.0 μM kallidine (DesArg10) is defined as non-specific binding. The concentration binding curve may be analysed using computer-aided non-linear curve fitting to determine the corresponding Ki value for the test substance.
Test results of the cynoBK1-receptor binding assay: […]

human hepatocytes = test: metabolic clearance in human hepatocytes; format: in vitro ADME; conditions: cryopreserved primary human hepatocytes, 5% human serum, 1 μM test compound, 6 h; well-stirred model, percentage of human hepatic blood flow
From the text: The metabolic stability can be measured by determining the decomposition in human hepatocytes and using the rate of decomposition to calculate the clearance, which in turn is expressed as a percentage of the human hepatic blood flow (% Qh). […] Thus, in the interests of achieving a long duration of activity it is highly advantageous if the active substance has a high metabolic stability (low clearance).
Description of Method for Determining Metabolic Clearance in Human Hepatocytes
The metabolic breakdown of the test substance is determined in a hepatocyte suspension. Cryopreserved primary human hepatocytes are incubated in a suitable incubation medium (e.g. Dulbecco's modified eagle medium, DMEM) which contains 5% human serum. After 30 minutes' pre-incubation in the incubator (37° C., 10% carbon dioxide) 5 μL of the test compound (80 μM, prepared from a 2 mM stock solution in dimethylsulphoxide and diluted 1:25 with incubation medium) are added to 395 μL of hepatocyte suspension (cell density in the range from 0.25-1 million cells/mL, typically 1 million cells/mL; final concentration of the test compound 1 μM). The cells are incubated for 6 hours in an incubator with an orbital agitator. At times 0, 0.5, 1, 2, 4 and 6 h, 25 μL of the medium are removed in each case. The medium removed is mixed with an excess of acetonitrile and centrifuged for 5 minutes. The supernatant is removed, evaporated to dryness under nitrogen and taken up in a mixture of 25% methanol and 0.1% formic acid. The reduction in the concentration of the test substance in the incubation medium is determined by coupling liquid chromatography with electrospray mass spectrometry. The linear phase of the decrease in the concentration of the test substance in the medium is used for the calculation. The intrinsic clearance is calculated as follows: CL_INTRINSIC=dose/AUC=(C0/CD)/(AUD+clast/k)×1000/60. C0: initial concentration in the incubation [μM], CD: cell density of the vital cells [10e6cells/mL], AUD: area under the curve [μM×h], clast: concentration of the last data point [μM], k: increase in the regression lines for the reduction in the test substance [h−1]. The intrinsic in vitro clearance calculated is now converted into the intrinsic in vivo clearance: CL_INTRINSIC_INVIVO [ml/min/kg]=(CL_INTRINSIC [μL/min/10e6cells]×hepatocellularity [10e6 cells/g liver]×liver factor [g/kg body weight])/1000 and the estimated human clearance is calculated using the well-stirred model: CL [ml/min/kg]=CL_INTRINSIC_INVIVO [ml/min/kg]×hepatic blood flow [ml/min/kg]/(CL_INTRINSIC_INVIVO [ml/min/kg]+hepatic blood flow [ml/min/kg]). […]

[1] = CHO cell homogenate expressing cynomolgus BK1-receptor, radioligand kallidine (DesArg10,Leu9), [3,4-Prolyl-3,43H(N)]
[2] = cynoBK1-receptor binding, repeated beside clearance in the metabolic stability table

Ki (cynomolgus BK1-receptor; [1]) [µM]	Clearance (human hepatocytes) [% Qh]	Ki (cynomolgus BK1-receptor; [2]) [µM]	SMILES
0.0032	6		O=C(N[C@@]1(C(=O)NCc2ccc(Nc3ccc(F)cc3C(F)(F)F)cc2F)CCOC1)c1cn[nH]c(=O)c1 [Example 6, (S)-6-oxo-1,6-dihydro-pyridazine-4-carboxylic acid-{3-[2-fluoro-4-(4-fluoro-2-trifluoromethyl-phenylamino)-benzylcarbamoyl]-tetrahydrofuran-3-yl}-amide]
0.027			O=C(N[C@@]1(C(=O)NCc2ccc(Nc3ccc(Cl)cc3C(F)(F)F)cc2)CCOC1)c1cn[nH]c(=O)c1 [Example 4, (S)-6-oxo-1,6-dihydro-pyridazine-4-carboxylic acid-{3-[4-(4-chloro-2-trifluoromethyl-phenylamino)-benzylcarbamoyl]-tetrahydrofuran-3-yl}-amide]
0.0066			O=C(N[C@@]1(C(=O)NCc2ccc(Nc3ccccc3C(F)(F)F)cc2F)CCOC1)c1cn[nH]c(=O)c1 [Example 9, (S)-6-oxo-1,6-dihydro-pyridazine-4-carboxylic acid {3-[2-fluoro-4-(2-trifluoromethyl-phenylamino)-benzylcarbamoyl]-tetrahydro-furan-3-yl}-amide]
0.037			O=C(N[C@@]1(C(=O)NCc2ccc(Nc3ccc(Br)cc3C(F)(F)F)cc2)CCOC1)c1cn[nH]c(=O)c1 [Example 8, (S)-6-oxo-1,6-dihydro-pyridazine-4-carboxylic acid-{3-[4-(4-bromo-2-trifluoromethyl-phenylamino)-benzylcarbamoyl]-tetrahydrofuran-3-yl}-amide]
0.012	7	0.012	O=C(N[C@@]1(C(=O)NCc2ccc(Nc3ccc(F)cc3C(F)(F)F)cc2)CCOC1)c1cn[nH]c(=O)c1 [Example 3, (S)-6-oxo-1,6-dihydro-pyridazine-4-carboxylic acid-{3-[4-(4-fluoro-2-trifluoromethyl-phenylamino)-benzylcarbamoyl]-tetrahydrofuran-3-yl}-amide]
0.03			O=C(N[C@@]1(C(=O)NCc2ccc(Nc3ccc(Cl)cc3C(F)(F)F)cc2F)CCOC1)c1cn[nH]c(=O)c1 [Example 7, (S)-6-oxo-1,6-dihydro-pyridazine-4-carboxylic acid-{3-[4-(4-chloro-2-trifluoromethyl-phenylamino)-2-fluoro-benzylcarbamoyl]-tetrahydrofuran-3-yl}-amide]
0.0035	1	0.0035	O=C(NC1(C(=O)NCc2ccc(Nc3ccc(F)cc3C(F)(F)F)cn2)CC1)c1cn[nH]c(=O)c1 [Example 1, 6-oxo-5,6-dihydro-pyridazine-4-carboxylic acid-(1-{[5-(4-fluoro-2-trifluoromethyl-phenylamino)-pyridin-2-ylmethyl]-carbamoyl}-cyclopropyl)-amide]
0.0051			O=C(NC1(C(=O)NCc2ccc(Nc3ccc(Cl)cc3C(F)(F)F)cn2)CC1)c1cn[nH]c(=O)c1 [Example 2, 6-oxo-1,6-dihydro-pyridazine-4-carboxylic acid-(1-{[5-(4-chloro-2-trifluoromethyl-phenylamino)-pyridin-2-ylmethyl]-carbamoyl}-cyclopropyl)-amide]
0.011	22	0.011	O=C(N[C@@]1(C(=O)NCc2ccc(Nc3ccccc3C(F)(F)F)cc2)CCOC1)c1cn[nH]c(=O)c1 [Example 5, (S)-6-oxo-1,6-dihydro-pyridazine-4-carboxylic acid-{3-[4-(2-trifluoromethyl-phenylamino)-benzylcarbamoyl]-tetrahydrofuran-3-yl}-amide]
